Structures can show the parent of a compound that is named as a salt.
Legend:
EGFR = assay: Immunohistochemistry of PDX tumor tissue, EGFR; assay type: in vivo, mice; conditions: for EGFR % Moderate Positive Cells / EGFR % Positive / EGFR % Strong Positive Cells / EGFR % Weak Positive Cells / EGFR %Negative Cells / EGFR H Score: IHC
Protocol: [The source words this procedure for another target and reports this target under the same test.] Tissue samples from mice bearing tumors from Black and White PCa patients post treatments with GemHCl and 4NSG-SLN were excised and immediately washed with PBS, fixed (10% buffered formalin) for 24 h, and transferred to 70% ethanol for histopathological analysis. Histology was performed by HistoWiz Inc. (Histowiz.com) according to manufacturer protocol. Samples were embedded in paraffin, and 4 μm sections were prepared. Immunohistochemistry was performed on a Bond Rx autostainer (Leica Biosystems) with enzyme treatment (1:1000) using standard protocols (https://home.histowiz.com/faq/). Samples were incubated overnight with primary antibodies (Antibodies used were rat monoclonal F4/80 primary antibody (eBioscience, 14–4801, and 1:200), and immunohistochemical staining was done using rabbit anti-rat secondary (Vector Labs, 1:100). Bond Polymer Refine Detection was used per the manufacturer's protocol (Leica Biosystems). After staining, sections were dehydrated and filmed, coverslipped using a Tissue-Tek Prisma coverslip (Sakura). Whole slide scanning (40x) was performed on an Aperio AT2 (Leica Biosystems).

PPCL-46 cells = assay: Cell cycle distribution (PI, flow cytometry), PPCL-46; assay type: cell-based, human; conditions: 24 h
Protocol: Cell cycle study was performed to determine the effect of 4NSG-SLN on the cell cycle; PPCL-192 and PPCL-46 cells (2 × 10^5 cells per well) were seeded in 6-well plates and cultured using DMEM medium supplemented with 10% FBS10 mM HEPES, 10% FBS, and 1% penicillin/streptomycin were seeded in 6-well plates and incubated at 37 °C. After the cells reached 75% confluence, they were exposed to different concentrations (5 μM,10 μM, and 20 µM) of GemHCl and 4NSG-SLN. After 24 h exposure, cells were harvested, washed with PBS, centrifuged at 300 × g for 5 min, resuspended the pellets in 100 μL of PBS, and passed through a 28 5/8 needle to disperse them into single cells. Fixation and permeation of cells were performed using cold 70% ethanol while vortexing. Cells were then stored at − 20 °C overnight. The cells were resuspended in 0.1 mg/mL RNase, stained with […] PI, and the phase distribution was examined using flow cytometry (FACScalibur-Becton Dickinson).

[1] = Pharmacokinetic study in mice (i.v. bolus); assay type: in vivo; conditions: single i.v. bolus, Gem equivalent (b110 prints 20 mg/kg)
Protocol: For pharmacokinetic (PK) studies, normal healthy mice were grouped into control, GemHCl, and 4NSG-SLN. […] After the injection, aliquots of blood samples were collected at predetermined time points (5, 10, 15, 30, 60, 120, 240, 360, 720, and 1440 min). Blood samples collected were treated with 2 mL of an extraction solvent (15% of isopropyl alcohol in ethyl acetate). The mixture was vortexed for 30 s and centrifuged at 3,000 rpm for 15 min, and the supernatant was collected and vaporized to dry overnight in a water bath. Residual solvent was removed by placing the dried samples in vacuum chamber.
Five hundred microliters (500 uL) of mobile phase solution was used to reconstitute the dried sample (mobile phase solution was made up of 5% acetonitrile in 10 mM dihydrogen phosphate buffer, pH adjusted to 3). The sample solution was centrifuged at 3,000 rpm for 15 min, supernatant collected and filtered, and samples analyzed for Gem using HPLC. The PK parameters were determined using PKSolver software.
To determine the concentration of Gem, supernatant from mouse plasma was spiked with aliquots of 0.5 μg/ml of Gem. The chromatographic analysis was performed according to the method described with minor modifications. The samples were collected using supernatants (10µL), aliquots of control (spiked), and mouse plasma. The chromatographic system consisted of an HPLC (Agilent Technologies, 1290 infinity) equipped with an auto-sampler, diode array detector (DAD), and pumps. Separation was performed using a reverse phase column (Zobrax Rapid Resolution High Definition (RRHD) Eclipse plus C18, 2.1 × 50 mm, 1.8 µm). A flow rate of 250 µL/min and injection volume of 10 μL at ambient temperature was maintained at 25 ± 1 °C while detection was performed at 268 nm. Before analysis, the reverse phase column was equilibrated with a mobile phase of 5% acetonitrile in 10 mM dihydrogen phosphate buffer, pH adjusted to 2.5 with trifluoroacetic acid (TFA). Isocratic elution was performed throughout the entire analysis, including internal standards. A calibration curve was prepared using Gem standard solutions with a concentration range of 0.063–2.0 μg/mL. A plot of the peak areas as a function of Gem concentration was plotted, and the linear equation of the calibration curve given as y = mx + c was determined, where y is the peak area, m is the slope, x is the concentration of Gem, and c is the y—intercept.

[2] = BT PDX tumor tissue after treatment
[3] = WT PDX tumor tissue after treatment

Compound: Nc1ccn([C@@H]2O[C@H](CO)[C@@H](O)C2(F)F)c(=O)n1 [GemHCl, Gemcitabine hydrochloride]
- EGFR % Moderate Positive Cells (EGFR; [2]): 0.6 ± 0.2%
- EGFR % Positive (EGFR; [2]): 25 ± 4.5%
- EGFR % Strong Positive Cells (EGFR; [2]): 0.5 ± 0.1%
- EGFR % Weak Positive Cells (EGFR; [2]): 1.4 ± 0.1%
- EGFR %Negative Cells (EGFR; [2]): 72.5 ± 1.5%
- EGFR H Score (EGFR; [2]): 3.0
- EGFR expression in representative IHC images (EGFR; BT and WT PDX tumor tissues, 40X): moderate to high
- EGFR % Moderate Positive Cells (EGFR; [3]): 3.1 ± 2.1%
- EGFR % Positive (EGFR; [3]): 20 ± 10%
- EGFR % Strong Positive Cells (EGFR; [3]): 2.3 ± 1.5%
- EGFR % Weak Positive Cells (EGFR; [3]): 2.7 ± 0.7%
- EGFR %Negative Cells (EGFR; [3]): 71.9 ± 1.6%
- EGFR H Score (EGFR; [3]): 22.1
- %G1 (PPCL-46 cells; PPCL-46, 5 μM): 72.75%
- %G2 (PPCL-46 cells; PPCL-46, 5 μM): 12.56%
- %S (PPCL-46 cells; PPCL-46, 5 μM): 14.69%
- %G1 (PPCL-46 cells; PPCL-46, 10 μM): 74.08%
- %G2 (PPCL-46 cells; PPCL-46, 10 μM): 10.39%
- %S (PPCL-46 cells; PPCL-46, 10 μM): 15.53%
- %G1 (PPCL-46 cells; PPCL-46, 20 μM): 76.35%
- %G2 (PPCL-46 cells; PPCL-46, 20 μM): 9.54%
- %S (PPCL-46 cells; PPCL-46, 20 μM): 14.11%
- clearance ([1]; mouse, plasma, iv, read-out: Cl (clearance) (converted)): 0.355 mL/min
- Vd ([1]; mouse, plasma, iv, read-out: Vd (volume of distribution)): 0.0217 ± 0.0019 L
- k el ([1]; mouse, plasma, iv, read-out: k10 (elimination rate constant) (converted)): 0.000281 s⁻¹
- half-life ([1]; mouse, plasma, iv, read-out: t1/2 (half-life) (converted)): 42 ± 0.6 min
- AUC(0-t) [1]: 28200 ± 4300 ng·h/mL

Reference: paper PMC10182601, “Biological evaluation of novel gemcitabine analog in patient-derived xenograft models of pancreatic cancer” (BMC Cancer, 2023)
